Measurements from patent US5994359A, “Imino oxyphenyl acetic acid derivatives, methods and intermediates for their preparation and use thereof” (BASF Aktiengesellschaft, priority 1995, dated 1999).

tested on: Aphis fabae; experiment: Aphis fabae (blackbean aphid), contact action; assay type: in vivo; settings: infested dwarf beans (Vicia faba), mortality after 24 hours, read-out: limit concentration (lowest concentration still causing 80-100% inhibition or mortality)
Description: (§1) The active ingredients were formulated
(§2) a) as a 0.1% strength solution in acetone or
(§3) b) as a 10% emulsion in a mixture of 70% by weight of cyclohexanol, 20% by weight of Nekanil® LN (Lutensol® AP6, wetting agent having emulsifying and dispersant action based on ethoxylated alkylphenols) and 10% by weight of Emulphor® EL emulsifier based on ethoxylated fatty alcohols)
(§4) and diluted to give the desired concentraton, using acetone in the case of a) and water in the case of b).
(§5) After the experiments had been concluded, in each case the lowest concentration at which the compounds still caused an 80-100% inhibition or mortality in comparison with untreated controls was determined (limit or minimum concentration).
Severely infested dwarf beans (Vicia faba) were treated with the aqueous preparation of active ingredient. After 24 hours, the mortality rate was determined.

Compound | minimal effective concentration
CCON=C(C)C(C)=NOc1ccccc1C(=NOC)C(=O)OC [I(2).9] | 200 µg/mL

tested on: Heliothis virescens; experiment: Heliothis virescens (tobacco budworm), contact/stomach action; assay type: in vivo; settings: tobacco plants, 3rd instar larvae, mortality and antifeeding effect after 48 hours, read-out: limit concentration (lowest concentration still causing 80-100% inhibition or mortality)
Description: as §1, §2, §3, §4, §5
Tobacco plants approximately 10 cm high were treated with the aqueous preparation of active ingredient. After the plants had dried, they were populated with in each case 10 3rd instar larvae. Mortality and antifeeding effect were assessed after 48 hours.

Compound | minimal effective concentration
C#CCON=C(C)C(C)=NOc1ccccc1C(=COC)C(=O)OC [I(2).17] | 40 µg/mL

tested on: mitochondria of the yeast Saccharomyces cerevisiae; experiment: Inhibition of mitochondrial respiration (photometric cytochrome c reduction rate in isolated mitochondria); assay type: biochemical; settings: Saccharom. cerevisiae mitochondria; relative to reference substance enol ether stilbene
Description: To determine the effect of the compounds according to the invention on mitochondrial respiration, it is first necessary to isolate the mitochondria from the test organisms. In the case of the yeast Saccharomyces cerevisiae, a 30 to 40% cell suspension of the fungus is disrupted, to this end, in an aqueous solution of 0.6 M Mannitol+0.01 M tris[hydroxymethyl]aminomethane+0.002 M disodium ethylenediaminetetraacetate (pH 6.8) using a glass bead mill, and the extract is fractionated by means of differential centrifugation at 1000×g and 12000×g. The mitochondria are in the precipitate of the 12000×g centrifugation.
The effect of the compounds on the respiration chain is determined by adding a solution of the test compound in dimethyl sulfoxide to a suspension of mitochondria in an aqueous solution of 0.01 M tris[hydroxymethyl]aminomethane+0.65 M sorbitol+0.01 M KH2 PO4 +0.01 M KCl+0.0004 M disodium ethylenediamine-tetraacetate+0.3% bovine serum albumin+0.0007 M KCN+6×10^-6 ubiquinone-50+0.01 M sodium succinate+0.15% cytochrome c (pH 7.5), and the reduction rate of the cytochrome c is determined photometrically on the basis of the increased absorption at 546 nm. A batch with a corresponding amount of pure DMSO is used as control. The inhibitory value for the active ingredient at the concentration shown in each case is then calculated as follows. [formula] where ΔE is the difference in absorption, At the difference in time, [formula]
In the table which follows, the action of a series of compounds according to the invention as respiration inhibitors on the mitochondria of the yeast Saccharomyces cerevisiae, the phyto-pathogenic fungus Drechslera sorokiniana and the common housefly Musca domestics.
In each case, the inhibition of mytochondrial respiration is given as I50 value (this being the concentration of test substance where a 50% inhibition is observed) and as F value, this being a relative value defined as follows: [formula]
The reference substance is the so-called enol ether stilbene, of the following formula: [drawing 80]

Compound | F value (relative value)
CON=C(C(=O)OC)c1ccccc1ON=C(C)c1cccc(C)c1 [I(1).1, methyl methoxyimino-[2-(1-meta-tolylethylideneaminooxy)phenyl]acetate] | 0.96
CNC(=O)C(=NOC)c1ccccc1ON=C(C)c1cccc(C)c1 [I(1).2, 2-methoxyimino-N-methyl-2-[2-(1-meta-tolylethylideneamino-oxy)phenyl]acetamide] | 11
CON=C(C)C(C)=NOc1ccccc1C(=NOC)C(=O)OC [I(2).2, methyl methoxyimino-[2-(2-methoxyimino-1-methylpropylideneaminooxy)phenyl]acetate] | 0.43
CNC(=O)C(=NOC)c1ccccc1ON=C(C)C(C)=NOC [I(2).3, N-methyl-methoxyimino-[2-(2-methoxyimino-1-methylpropylideneaminooxy)phenyl]acetamide] | 9.6

tested on: Tetranychus telarius; experiment: Tetranychus telarius (greenhouse red spider mite), contact action; assay type: in vivo; settings: 120 h, infested dwarf beans in pots, assessed after 5 days in the greenhouse, read-out: limit concentration (lowest concentration still causing 80-100% inhibition or mortality)
Description: as §1, §2, §3, §4, §5
After 5 days in the greenhouse, the result of the control measures was determined by means of a stereomicroscope.

Compound | minimal effective concentration
CON=C(C)C(C)=NOc1ccccc1C(=NOC)C(=O)OC [I(2).2, methyl methoxyimino-[2-(2-methoxyimino-1-methylpropylideneaminooxy)phenyl]acetate] | ≤ 200 µg/mL
COC=C(C(=O)OC)c1ccccc1ON=C(C)C(C)=NOC(C)C [I(2).6] | ≤ 200 µg/mL
COC=C(C(=O)OC)c1ccccc1ON=C(C)C(C)=NOC [I(2).7, methyl 3-methoxy-[2-(2-methoxyimino-1-methyl-propylideneaminooxy)phenyl]acrylate] | ≤ 200 µg/mL
CNC(=O)C(=NOC)c1ccccc1ON=C(C)C(C)=NOC(C)C [I(2).8] | ≤ 200 µg/mL
CCON=C(C)C(C)=NOc1ccccc1C(=NOC)C(=O)OC [I(2).9] | ≤ 200 µg/mL
CON=C(C(=O)OC)c1ccccc1ON=C(C)C(C)=NOC(C)C [I(2).13] | ≤ 200 µg/mL
CCC(=NOc1ccccc1C(=COC)C(=O)OC)C(C)=NOC [I(2).14] | ≤ 200 µg/mL
CCON=C(C)C(C)=NOc1ccccc1C(=COC)C(=O)OC [I(2).15] | ≤ 200 µg/mL
C#CCON=C(C)C(C)=NOc1ccccc1C(=NOC)C(=O)OC [I(2).16] | ≤ 200 µg/mL
C#CCON=C(C)C(C)=NOc1ccccc1C(=COC)C(=O)OC [I(2).17] | ≤ 200 µg/mL
CCC(=NOC)C(C)=NOc1ccccc1C(=NOC)C(=O)NC [I(2).19] | ≤ 200 µg/mL
CCC(=NOC)C(C)=NOc1ccccc1C(=COC)C(=O)OC [I(2).20] | ≤ 200 µg/mL
CCC(=NOC)C(C)=NOc1ccccc1C(=NOC)C(=O)OC [I(2).21] | ≤ 200 µg/mL
